# Measurements reported in PubChem BioAssay (NCI).
#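 Tested at 5 concentrations; 48 h exposure; 96-well plates; endpoints linearly interpolated, else capped at highest concentration. TGI: total growth inhibition.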
# What was measured:
# Experiment in all cases: inhibition of tumour cell growth, NCI panel, 48 h
# MDA-MB-435 = test system: MDA-MB-435
# HT29 colon = test system: HT29 colon
# HOP-62 NSCLC = test system: HOP-62 NSCLC
# SNB-19 CNS = test system: SNB-19 CNS
# A498 renal = test system: A498 renal
# SK-MEL-2 melanoma = test system: SK-MEL-2 melanoma
# T-47D breast = test system: T-47D breast
# NCI-H522 lung = test system: NCI-H522 lung
# RXF 393 renal = test system: RXF 393 renal
# SF-295 CNS = test system: SF-295 CNS
# OVCAR-4 ovarian = test system: OVCAR-4 ovarian
# OVCAR-8 ovarian = test system: OVCAR-8 ovarian
# MDA-N = test system: MDA-N
# UACC-257 melanoma = test system: UACC-257 melanoma
# HS 578T breast = test system: HS 578T breast
# NCI-H23 lung = test system: NCI-H23 lung
# SR leukemia = test system: SR leukemia
# 786-0 renal = test system: 786-0 renal
# DU-145 prostate = test system: DU-145 prostate
# RPMI-8226 leukemia = test system: RPMI-8226 leukemia
# HOP-92 NSCLC = test system: HOP-92 NSCLC
# U251 CNS = test system: U251 CNS
# HCT-15 colon = test system: HCT-15 colon
# OVCAR-5 ovarian = test system: OVCAR-5 ovarian
# NCI-H226 lung = test system: NCI-H226 lung
# EKVX NSCLC = test system: EKVX NSCLC
# MALME-3M melanoma = test system: MALME-3M melanoma
# SK-OV-3 ovarian = test system: SK-OV-3 ovarian
# UO-31 renal = test system: UO-31 renal
# HL-60(TB) leukemia = test system: HL-60(TB) leukemia
# SK-MEL-5 melanoma = test system: SK-MEL-5 melanoma
# MCF7 breast = test system: MCF7 breast
# A549 NSCLC = test system: A549 NSCLC
# UACC-62 melanoma = test system: UACC-62 melanoma
# MDA-MB-231 breast = test system: MDA-MB-231 breast
# MOLT-4 leukemia = test system: MOLT-4 leukemia
# K-562 leukemia = test system: K-562 leukemia
# COLO 205 colon = test system: COLO 205 colon
# TK-10 renal = test system: TK-10 renal
# PC-3 prostate = test system: PC-3 prostate
# KM12 colon = test system: KM12 colon
# HCT-116 colon = test system: HCT-116 colon
# ACHN renal = test system: ACHN renal
# SNB-75 CNS = test system: SNB-75 CNS
# SW-620 colon = test system: SW-620 colon
# SK-MEL-28 melanoma = test system: SK-MEL-28 melanoma
# SF-539 CNS = test system: SF-539 CNS
# SF-268 CNS = test system: SF-268 CNS
# BT-549 breast = test system: BT-549 breast
# HCC-2998 colon = test system: HCC-2998 colon
# M14 melanoma = test system: M14 melanoma
# NCI-H460 lung = test system: NCI-H460 lung
# NCI/ADR-RES ovarian = test system: NCI/ADR-RES ovarian
# OVCAR-3 ovarian = test system: OVCAR-3 ovarian
# SN12C renal = test system: SN12C renal
# IGROV1 ovarian = test system: IGROV1 ovarian
# CCRF-CEM leukemia = test system: CCRF-CEM leukemia
# LOX IMVI melanoma = test system: LOX IMVI melanoma
# CAKI-1 renal = test system: CAKI-1 renal
compound,measurement,setting,value
O=C1C(Cl)C(c2cc3cc(Br)ccc3nc2Cl)N1c1ccc(F)c(Cl)c1 (configuration not stated),TGI,MDA-MB-435,17.7 µM
same,TGI,HT29 colon,26.5 µM
same,TGI,HOP-62 NSCLC,6.39 µM
same,TGI,SNB-19 CNS,23.1 µM
same,TGI,A498 renal,15.1 µM
same,TGI,SK-MEL-2 melanoma,23.5 µM
same,TGI,T-47D breast,27.4 µM
same,TGI,NCI-H522 lung,0.719 µM
same,TGI,RXF 393 renal,17.3 µM
same,TGI,SF-295 CNS,23.4 µM
same,TGI,OVCAR-4 ovarian,4.96 µM
same,TGI,OVCAR-8 ovarian,54 µM
same,TGI,MDA-N,22.3 µM
same,TGI,UACC-257 melanoma,25.7 µM
same,TGI,HS 578T breast,75 µM
same,TGI,NCI-H23 lung,19 µM
same,TGI,SR leukemia,2.61 µM
same,TGI,786-0 renal,2.25 µM
same,TGI,DU-145 prostate,22.1 µM
same,TGI,RPMI-8226 leukemia,5.23 µM
same,TGI,HOP-92 NSCLC,2.72 µM
same,TGI,U251 CNS,12.5 µM
same,TGI,HCT-15 colon,27.6 µM
same,TGI,OVCAR-5 ovarian,24.8 µM
same,TGI,NCI-H226 lung,40.2 µM
same,TGI,EKVX NSCLC,3.62 µM
same,TGI,MALME-3M melanoma,22.8 µM
same,TGI,SK-OV-3 ovarian,26.9 µM
same,TGI,UO-31 renal,0.29 µM
same,TGI,HL-60(TB) leukemia,18.6 µM
same,TGI,SK-MEL-5 melanoma,19.8 µM
same,TGI,MCF7 breast,20.1 µM
same,TGI,A549 NSCLC,43.5 µM
same,TGI,UACC-62 melanoma,21.2 µM
same,TGI,MDA-MB-231 breast,24.8 µM
same,TGI,MOLT-4 leukemia,4.74 µM
same,TGI,K-562 leukemia,17 µM
same,TGI,COLO 205 colon,22.5 µM
same,TGI,TK-10 renal,17 µM
same,TGI,PC-3 prostate,34.2 µM
same,TGI,KM12 colon,7.77 µM
same,TGI,HCT-116 colon,18.9 µM
same,TGI,ACHN renal,24.2 µM
same,TGI,SNB-75 CNS,21.4 µM
same,TGI,SW-620 colon,33 µM
same,TGI,SK-MEL-28 melanoma,34.5 µM
same,TGI,SF-539 CNS,3.66 µM
same,TGI,SF-268 CNS,14.2 µM
same,TGI,BT-549 breast,25.9 µM
same,TGI,HCC-2998 colon,21.7 µM
same,TGI,M14 melanoma,21.8 µM
same,TGI,NCI-H460 lung,24.4 µM
same,TGI,NCI/ADR-RES ovarian,29.8 µM
same,TGI,OVCAR-3 ovarian,12.8 µM
same,TGI,SN12C renal,20.5 µM
same,TGI,IGROV1 ovarian,2.14 µM
C[N+](C)(C)CCN(Cc1cccs1)c1ccccn1,TGI,MDA-MB-435,> 100 µM
same,TGI,HOP-62 NSCLC,> 100 µM
same,TGI,SNB-19 CNS,> 100 µM
same,TGI,A498 renal,> 100 µM
same,TGI,SK-MEL-2 melanoma,> 100 µM
same,TGI,CCRF-CEM leukemia,> 100 µM
same,TGI,T-47D breast,> 100 µM
same,TGI,NCI-H522 lung,> 100 µM
same,TGI,RXF 393 renal,> 100 µM
same,TGI,SF-295 CNS,> 100 µM
same,TGI,OVCAR-4 ovarian,> 100 µM
same,TGI,OVCAR-8 ovarian,> 100 µM
same,TGI,MDA-N,> 100 µM
same,TGI,UACC-257 melanoma,> 100 µM
same,TGI,HS 578T breast,> 100 µM
same,TGI,NCI-H23 lung,> 100 µM
same,TGI,SR leukemia,> 100 µM
same,TGI,786-0 renal,> 100 µM
same,TGI,DU-145 prostate,> 100 µM
same,TGI,LOX IMVI melanoma,> 100 µM
same,TGI,RPMI-8226 leukemia,> 100 µM
same,TGI,HOP-92 NSCLC,73.9 µM
same,TGI,U251 CNS,> 100 µM
same,TGI,HCT-15 colon,> 100 µM
same,TGI,NCI-H226 lung,> 100 µM
same,TGI,MALME-3M melanoma,> 100 µM
same,TGI,SK-OV-3 ovarian,> 100 µM
same,TGI,UO-31 renal,> 100 µM
same,TGI,HL-60(TB) leukemia,> 100 µM
same,TGI,SK-MEL-5 melanoma,> 100 µM
same,TGI,MCF7 breast,> 100 µM
same,TGI,A549 NSCLC,> 100 µM
same,TGI,UACC-62 melanoma,> 100 µM
same,TGI,MDA-MB-231 breast,> 100 µM
same,TGI,K-562 leukemia,> 100 µM
same,TGI,COLO 205 colon,> 100 µM
same,TGI,TK-10 renal,> 100 µM
same,TGI,PC-3 prostate,> 100 µM
same,TGI,KM12 colon,> 100 µM
same,TGI,HCT-116 colon,> 100 µM
same,TGI,ACHN renal,> 100 µM
same,TGI,SNB-75 CNS,> 100 µM
same,TGI,SW-620 colon,> 100 µM
same,TGI,SK-MEL-28 melanoma,> 100 µM
same,TGI,SF-539 CNS,> 100 µM
same,TGI,SF-268 CNS,> 100 µM
same,TGI,BT-549 breast,> 100 µM
same,TGI,CAKI-1 renal,> 100 µM
same,TGI,HCC-2998 colon,> 100 µM
same,TGI,M14 melanoma,> 100 µM
same,TGI,NCI-H460 lung,> 100 µM
same,TGI,NCI/ADR-RES ovarian,> 100 µM
same,TGI,OVCAR-3 ovarian,> 100 µM
same,TGI,SN12C renal,> 100 µM
same,TGI,IGROV1 ovarian,> 100 µM
O=C(CSc1nc2ccccc2c2ccccc12)c1ccccc1,TGI,MDA-MB-435,> 100 µM
same,TGI,HT29 colon,> 100 µM
same,TGI,HOP-62 NSCLC,> 100 µM
same,TGI,SNB-19 CNS,> 100 µM
same,TGI,A498 renal,> 100 µM
same,TGI,SK-MEL-2 melanoma,> 100 µM
same,TGI,T-47D breast,> 100 µM
same,TGI,NCI-H522 lung,> 100 µM
same,TGI,RXF 393 renal,> 100 µM
same,TGI,SF-295 CNS,> 100 µM
same,TGI,OVCAR-4 ovarian,> 100 µM
same,TGI,OVCAR-8 ovarian,> 100 µM
same,TGI,MDA-N,> 100 µM
same,TGI,UACC-257 melanoma,> 100 µM
same,TGI,HS 578T breast,0.0967 µM
same,TGI,NCI-H23 lung,> 100 µM
same,TGI,SR leukemia,> 100 µM
same,TGI,786-0 renal,> 100 µM
same,TGI,DU-145 prostate,> 100 µM
same,TGI,LOX IMVI melanoma,> 100 µM
same,TGI,RPMI-8226 leukemia,> 100 µM
same,TGI,HOP-92 NSCLC,> 100 µM
same,TGI,U251 CNS,> 100 µM
same,TGI,HCT-15 colon,> 100 µM
same,TGI,OVCAR-5 ovarian,> 100 µM
same,TGI,NCI-H226 lung,> 100 µM
same,TGI,EKVX NSCLC,> 100 µM
same,TGI,MALME-3M melanoma,> 100 µM
same,TGI,UO-31 renal,> 100 µM
same,TGI,HL-60(TB) leukemia,> 100 µM
same,TGI,SK-MEL-5 melanoma,> 100 µM
same,TGI,MCF7 breast,> 100 µM
same,TGI,A549 NSCLC,> 100 µM
same,TGI,UACC-62 melanoma,> 100 µM
same,TGI,MDA-MB-231 breast,> 100 µM
same,TGI,MOLT-4 leukemia,> 100 µM
same,TGI,K-562 leukemia,> 100 µM
same,TGI,COLO 205 colon,> 100 µM
same,TGI,TK-10 renal,> 100 µM
same,TGI,PC-3 prostate,> 100 µM
same,TGI,KM12 colon,> 100 µM
same,TGI,HCT-116 colon,> 100 µM
same,TGI,ACHN renal,> 100 µM
same,TGI,SNB-75 CNS,57.9 µM
same,TGI,SW-620 colon,> 100 µM
same,TGI,SK-MEL-28 melanoma,> 100 µM
same,TGI,SF-539 CNS,> 100 µM
same,TGI,SF-268 CNS,> 100 µM
same,TGI,BT-549 breast,> 100 µM
same,TGI,CAKI-1 renal,> 100 µM
same,TGI,M14 melanoma,> 100 µM
same,TGI,NCI-H460 lung,> 100 µM
same,TGI,NCI/ADR-RES ovarian,> 100 µM
same,TGI,OVCAR-3 ovarian,> 100 µM
same,TGI,SN12C renal,> 100 µM
same,TGI,IGROV1 ovarian,> 100 µM
